≈ marks a conversion by molar mass, not a printed value.
Experiments:
[1] = tested on: Human immunodeficiency virus 1; test: Antiviral activity against HIV1 3B infected in human H9 cells after 4 days by p24 antigen ELISA assay; type: functional, organism-based; settings: Human immunodeficiency virus 1, 3B, H9, 96 h
[2] = Therapeutic index, ratio of IC50 for human H9 cells to EC50 for HIV1 3B; type: cell-based; settings: for Ratio IC50/EC50: h9; for selectivity ratio: H9 cells, read-out: Ratio IC50/EC50
H9 = test: Cytotoxicity against human H9 cells; type: cell-based

| SMILES | EC50 [1] | Ratio IC50/EC50 [2] | IC50 (H9) | selectivity ratio [2] |
| --- | --- | --- | --- | --- |
| O=C(O[C@H](Cc1ccc(O)c(O)c1)C(=O)[O-])C1=Cc2cc(O)c(O)cc2[C@H](c2ccc(O)c(O)c2)[C@H]1C(=O)O[C@H](Cc1ccc(O)c(O)c1)C(=O)O.[K+] | 1.5 µg/mL | 33.3 | 50 µg/mL | – |
| O=C(O[C@H](Cc1ccc(O)c(O)c1)C(=O)[O-])C1=Cc2cc(O)c(O)cc2[C@@H](c2ccc(O)c(O)c2)C1C(=O)O[C@H](Cc1ccc(O)c(O)c1)C(=O)[O-].[Na+].[Na+] (stereo partly drawn) | 2.8 µg/mL | 19.6 | 55 µg/mL | – |
| O=c1ccn([C@@H]2O[C@H](CO)[C@@H](O)[C@H]2O)c(=O)[nH]1 [URIDINE] | 10 µg/mL (≈ 40.9 µM) | – | – | > 10 |
| O=C(O[C@H](Cc1ccc(O)c(O)c1)C(=O)[O-])C1=Cc2cc(O)c(O)cc2[C@@H](c2ccc(O)c(O)c2)C1C(=O)O[C@H](Cc1ccc(O)c(O)c1)C(=O)[O-].[K+].[K+] (stereo partly drawn) | 16 µg/mL | 3.1 | 50 µg/mL | – |
| O=C(O[C@H](Cc1ccc(O)c(O)c1)C(=O)O)C1=Cc2cc(O)c(O)cc2[C@@H](c2ccc(O)c(O)c2)C1C(=O)O[C@H](Cc1ccc(O)c(O)c1)C(=O)O (stereo partly drawn) | 15 µg/mL (≈ 20.9 µM) | 3.3 | 50 µg/mL (≈ 69.6 µM) | – |
| O=C(O[C@H](Cc1ccc(O)c(O)c1)C(=O)O)C1=Cc2cc(O)c(O)cc2[C@H](c2ccc(O)c(O)c2)[C@H]1C(=O)O[C@H](Cc1ccc(O)c(O)c1)C(=O)O | 13 µg/mL (≈ 18.1 µM) | 3.5 | 45 µg/mL (≈ 62.6 µM) | – |
| O=C(O[C@H](Cc1ccc(O)c(O)c1)C(=O)[O-])C1=Cc2cc(O)c(O[C@@H]3O[C@H](CO)[C@@H](O)[C@H](O)[C@H]3O)cc2[C@@H](c2ccc(O)c(O)c2)C1C(=O)O[C@H](Cc1ccc(O)c(O)c1)C(=O)[O-].[K+].[Na+] (stereo partly drawn) | 30 µg/mL | – | 60 µg/mL | 2 |
| O=C(O[C@H](Cc1ccc(O)c(O)c1)C(=O)[O-])C1=Cc2cc(O)c(O)cc2[C@@H](c2ccc(O)c(O)c2)C1C(=O)O[C@H](Cc1ccc(O)c(O)c1)C(=O)O.[K+] (stereo partly drawn) | 4 µg/mL | 12.5 | 50 µg/mL | – |
